Test results: patent publication US7208266B2, “Endogenous coagulation activator compounds —use in exploring endogenous coagulation” (Societe Diagnostica-Stago, priority 2001, dated 2007)

Assays:
Assay type in all cases: biochemical
[1] = test system: endogenous coagulation; experiment: APTT coagulation time, reagents from amides or esters of gallic acid (Example 2); conditions: for Coagulation time, CCN / Coagulation time, CCP / Coagulation time, Heparins Batch 0811 / Coagulation time, Lupus Batch 021 / Coagulation time, Pool N LIK 800 / Coagulation time, Heparins Batch 1706: gallic acid derivative 100 μM
Text: Thus, the invention also concerns a method for measuring the activated partial thromoboplastin time (APTT) comprising the steps of: • bringing a platelet-depleted plasma sample into contact with compounds or compositions in accordance with the invention, in the presence of substitutes for the phospholipids of the platelet membrane, under conditions that allow activation of the endogenous coagulation pathway; • adding Ca^2+ ions in a quantity equivalent to the quantity of these ions that have been complexed in the plasma sample; • measuring the time required to transform fibrinogen into fibrin.
In particular, within the context of carrying out the above method, the plasma sample is constituted by a platelet-depleted plasma and a coagulation activator is incubated with the plasma for a period of about 2 to 5 minutes, at 37° C. The phospholipid membrane substitutes are either added from the start of the reaction, or mixed with the activator, or added individually during the reaction.
Then the calcium ions are added, for example in the form of calcium chloride in a concentration in the range 20 mM to 25 mM. The time required for fibrin formation is then measured.
In the next example, the coagulation times for different plasmas were determined from APTT reagents obtained from amides or esters of gallic acid. • normal plasmas=pool of equivalent quantities of plasmas from normal subjects; • CCN=coag. control normal: control plasma, normal level; • CCP=coag. control patho: control plasma, disease level; • heparins=plasmas from patient receiving an anticoagulating treatment based on non-fractionated heparin in the form of sodium or calcium salts; • lupus=plasma from a patient presenting with Lupus anticoagulant Syndrome; • def.f VIIIc=plasma from a patient presenting with a f VIIIc deficit (haemophilia A).

[2] = test system: endogenous coagulation; experiment: as above; conditions: gallic acid derivative 100 μM
[3] = test system: endogenous coagulation; experiment: APTT coagulation time, activation kinetics of ethylene glycol gallate heated at 80° C. (Example 3); conditions: 500 μM in solution buffered to pH 7.00, after heating for 24 hours at 80° C.
Procedure: After heating for 24 hours at 80° C., 500 μM of ethylene glycol gallate in solution buffered to a pH of 7.00 became active in an APTT coagulation test.
The procoagulating activity of the ethylene glycol gallate solution was compared with that of a reference reagent: CK-PREST, an APTT reagent in which the activator is kaolin. The instrument used to measure the coagulation time was an automated STA Diagnostica Stago haemostasis instrument (series n° 307).
The test plasmas were quality control plasmas:
CCN=coag control normal; CCP=coag control patho, batch n° 980901.
APTT reagent produced=ethylene glycol gallate, 500 μM, oxidised at 80° C.+Tricine, […], pH 7.00+cephaline (substitute for platelet phospholipids).

[4] = test system: endogenous coagulation; experiment: APTT coagulation time versus ethylene glycol gallate concentration (Example 6)
Procedure: The coagulating activity of an APTT reagent requires the joint action of two active principles: • a molecule activating the contact phase of the endogenous pathway. In fact, this was ethylene glycol gallate activated by heating to 80° C.; • a substitute for the phospholipids of the platelet membrane, cephaline, obtained by extracting rabbit brains with chloroform;
Optimum activity of the APTT reagent thus constituted depends on the concentrations of ethylene glycol gallate and cephaline.
The following tables show the results obtained for representative plasmas for different disorders and for some controls.

[5] = Ethylene Glycol gallate 1000 μM

Q: What does the source list for `N[C@@H](CO)C(=O)O` [H2N—CH—(CH2OH)—COOH]?
A: Coagulation time, CCN [1]: 210.9 s; Coagulation time, CCP [1]: 189.3 s; Coagulation time, Heparins Batch 0811 [1]: >300.0 s; Coagulation time, Lupus Batch 021 [1]: 232.6 s; Coagulation time, Pool N LIK 800 [1]: 245.0 s; Coagulation time, f VII def 25% [2]: 153.0 s

Q: Which results are given for `O=C(OCCO)c1cc(O)c(O)c(O)c1` [ethylene glycol gallate]?
A: Activity in an APTT coagulation test [3]: became active; Coagulation times compared with the reference reagent, CK-Prest ([1]; all plasmas of the table, derivative 100 μM): nearest results to those obtained with the reference reagent; Coagulation time, CCN [1]: 32.7 s; Coagulation time, CCP [1]: 50.5 s; Coagulation time, Heparins Batch 0811 [1]: 112.5 s; Coagulation time, Heparins Batch 1706 [1]: 65.7 s; Coagulation time, Lupus Batch 021 [1]: 45.7 s; Coagulation time, Pool N LIK 800 [1]: 37.4 s; Coagulation time, f VII def 25% [2]: 35.6 s; Coagulation time Control batch n° 80901 Normal ([4]; Ethylene Glycol gallate 10 μM): 130.6 s; Coagulation time Control batch n° 80901 Path ([4]; Ethylene Glycol gallate 10 μM): >140.0 s; Coagulation time Plasma (LA) MA 030 ([4]; Ethylene Glycol gallate 10 μM): >140.0 s; Coagulation time Plasma def f VIIIc ([4]; Ethylene Glycol gallate 10 μM): 121.9 s; Coagulation time Plasmas Heparins Batch 1635 ([4]; Ethylene Glycol gallate 10 μM): >140.0 s; Coagulation time Plasmas Heparins Batch 1726 ([4]; Ethylene Glycol gallate 10 μM): >140.0 s; Coagulation time Control batch n° 80901 Normal ([4]; Ethylene Glycol gallate 25 μM): 124.5 s; Coagulation time Control batch n° 80901 Path ([4]; Ethylene Glycol gallate 25 μM): 103.3 s; Coagulation time Plasma (LA) MA 030 ([4]; Ethylene Glycol gallate 25 μM): 103.3 s; Coagulation time Plasma def f VIIIc ([4]; Ethylene Glycol gallate 25 μM): 73.1 s; Coagulation time Plasmas Heparins Batch 1635 ([4]; Ethylene Glycol gallate 25 μM): >140.0 s; Coagulation time Plasmas Heparins Batch 1726 ([4]; Ethylene Glycol gallate 25 μM): >140.0 s; Coagulation time Control batch n° 80901 Normal ([4]; Ethylene Glycol gallate 50 μM): 88.6 s; Coagulation time Control batch n° 80901 Path ([4]; Ethylene Glycol gallate 50 μM): 99.6 s; Coagulation time Plasma (LA) MA 030 ([4]; Ethylene Glycol gallate 50 μM): 66.6 s; Coagulation time Plasma def f VIIIc ([4]; Ethylene Glycol gallate 50 μM): 44.8 s; Coagulation time Plasmas Heparins Batch 1635 ([4]; Ethylene Glycol gallate 50 μM): 73.1 s; Coagulation time Plasmas Heparins Batch 1726 ([4]; Ethylene Glycol gallate 50 μM): >140.0 s; Coagulation time Control batch n° 80901 Normal ([4]; Ethylene Glycol gallate 75 μM): 46.5 s; Coagulation time Control batch n° 80901 Path ([4]; Ethylene Glycol gallate 75 μM): 67.4 s; Coagulation time Plasma (LA) MA 030 ([4]; Ethylene Glycol gallate 75 μM): 50.4 s; Coagulation time Plasma def f VIIIc ([4]; Ethylene Glycol gallate 75 μM): 38.6 s; Coagulation time Plasmas Heparins Batch 1635 ([4]; Ethylene Glycol gallate 75 μM): 48.3 s; Coagulation time Plasmas Heparins Batch 1726 ([4]; Ethylene Glycol gallate 75 μM): 86.6 s; Coagulation time Control batch n° 80901 Normal ([4]; Ethylene Glycol gallate 100 μM): 38.4 s; Coagulation time Control batch n° 80901 Path ([4]; Ethylene Glycol gallate 100 μM): 46.2 s; Coagulation time Plasma (LA) MA 030 ([4]; Ethylene Glycol gallate 100 μM): 47.5 s; Coagulation time Plasma def f VIIIc ([4]; Ethylene Glycol gallate 100 μM): 38.2 s; Coagulation time Plasmas Heparins Batch 1635 ([4]; Ethylene Glycol gallate 100 μM): 48.0 s; Coagulation time Plasmas Heparins Batch 1726 ([4]; Ethylene Glycol gallate 100 μM): 80.0 s; Coagulation time Control batch n° 80901 Normal ([4]; Ethylene Glycol gallate 200 μM): 35.2 s; Coagulation time Control batch n° 80901 Path ([4]; Ethylene Glycol gallate 200 μM): 42.5 s; Coagulation time Plasma (LA) MA 030 ([4]; Ethylene Glycol gallate 200 μM): 46.7 s; Coagulation time Plasma def f VIIIc ([4]; Ethylene Glycol gallate 200 μM): 37.7 s; Coagulation time Plasmas Heparins Batch 1635 ([4]; Ethylene Glycol gallate 200 μM): 48.5 s; Coagulation time Plasmas Heparins Batch 1726 ([4]; Ethylene Glycol gallate 200 μM): 75.4 s; Coagulation time Control batch n° 80901 Normal ([4]; Ethylene Glycol gallate 300 μM): 34.3 s; Coagulation time Control batch n° 80901 Path ([4]; Ethylene Glycol gallate 300 μM): 39.6 s; Coagulation time Plasma (LA) MA 030 ([4]; Ethylene Glycol gallate 300 μM): 44.2 s; Coagulation time Plasma def f VIIIc ([4]; Ethylene Glycol gallate 300 μM): 37.5 s; Coagulation time Plasmas Heparins Batch 1635 ([4]; Ethylene Glycol gallate 300 μM): 47.7 s; Coagulation time Plasmas Heparins Batch 1726 ([4]; Ethylene Glycol gallate 300 μM): 73.7 s; Coagulation time Control batch n° 80901 Normal ([4]; Ethylene Glycol gallate 400 μM): 32.9 s; Coagulation time Control batch n° 80901 Path ([4]; Ethylene Glycol gallate 400 μM): 39.6 s; Coagulation time Plasma (LA) MA 030 ([4]; Ethylene Glycol gallate 400 μM): 43.4 s; Coagulation time Plasma def f VIIIc ([4]; Ethylene Glycol gallate 400 μM): 37.2 s; Coagulation time Plasmas Heparins Batch 1635 ([4]; Ethylene Glycol gallate 400 μM): 47.0 s; Coagulation time Plasmas Heparins Batch 1726 ([4]; Ethylene Glycol gallate 400 μM): 75.1 s; Coagulation time Control batch n° 80901 Normal ([4]; Ethylene Glycol gallate 500 μM): 32.6 s; Coagulation time Control batch n° 80901 Path ([4]; Ethylene Glycol gallate 500 μM): 48.5 s; Coagulation time Plasma (LA) MA 030 ([4]; Ethylene Glycol gallate 500 μM): 43.0 s; Coagulation time Plasma def f VIIIc ([4]; Ethylene Glycol gallate 500 μM): 37.5 s; Coagulation time Plasmas Heparins Batch 1635 ([4]; Ethylene Glycol gallate 500 μM): 47.3 s; Coagulation time Plasmas Heparins Batch 1726 ([4]; Ethylene Glycol gallate 500 μM): 76.1 s; Coagulation time Control batch n° 80901 Normal [4, 5]: 33.4 s; Coagulation time Control batch n° 80901 Path [4, 5]: 51.5 s; Coagulation time Plasma (LA) MA 030 [4, 5]: 42.5 s; Coagulation time Plasma def f VIIIc [4, 5]: 37.1 s; Coagulation time Plasmas Heparins Batch 1635 [4, 5]: 47.9 s; Coagulation time Plasmas Heparins Batch 1726 [4, 5]: 76.3 s

Q: How did the “Coagulation time, CCN” value [1] turn out when “ethylene diamine gallate [H2N—(CH2)n—NH2 n=2]” was run?
A: Its value is 138.1 s.

Q: What about the “Coagulation time, CCP” value [1] of the same molecule?
A: The value was 177.9 s.

Q: What about the “Coagulation time, Heparins Batch 0811” value [1] of the same molecule?
A: The value was greater than 300.0 s.

Q: And the “Coagulation time, Heparins Batch 1706” value [1]?
A: Its value is 228.4 s.

Q: And the “Coagulation time, Lupus Batch 021” value [1]?
A: Its value is 167.6 s.

Q: And the “Coagulation time, Pool N LIK 800” value [1]?
A: The value was 111.5 s.

Q: And the “Coagulation time, f VII def 25%” value [2]?
A: The value was 113.0 s.
